Measurements from patent publication US20210300943A1, “OGA INHIBITOR COMPOUNDS” (Janssen Pharmaceutica NV, priority 2018, published 2021).

What was measured:
[1] = target: T1, recombinant human Meningioma Expressed Antigen 5 (MGEA5), also referred to as O-GlcNAcase (OGA) (Homo sapiens, UniProt O60502); assay: OGA biochemical assay (inhibition of FM-GlcNAc hydrolysis, fluorescence); settings: for Emax: read-out: Enzymatic Emax (%); for IC50: read-out: Enzymatic hOGA, pIC50 (converted)
T1 construct: Full length OGA enzyme was purchased at OnGene (cat #TP322411); purchased OnGene (so in the source)
T1 sequence (O60502 1-916): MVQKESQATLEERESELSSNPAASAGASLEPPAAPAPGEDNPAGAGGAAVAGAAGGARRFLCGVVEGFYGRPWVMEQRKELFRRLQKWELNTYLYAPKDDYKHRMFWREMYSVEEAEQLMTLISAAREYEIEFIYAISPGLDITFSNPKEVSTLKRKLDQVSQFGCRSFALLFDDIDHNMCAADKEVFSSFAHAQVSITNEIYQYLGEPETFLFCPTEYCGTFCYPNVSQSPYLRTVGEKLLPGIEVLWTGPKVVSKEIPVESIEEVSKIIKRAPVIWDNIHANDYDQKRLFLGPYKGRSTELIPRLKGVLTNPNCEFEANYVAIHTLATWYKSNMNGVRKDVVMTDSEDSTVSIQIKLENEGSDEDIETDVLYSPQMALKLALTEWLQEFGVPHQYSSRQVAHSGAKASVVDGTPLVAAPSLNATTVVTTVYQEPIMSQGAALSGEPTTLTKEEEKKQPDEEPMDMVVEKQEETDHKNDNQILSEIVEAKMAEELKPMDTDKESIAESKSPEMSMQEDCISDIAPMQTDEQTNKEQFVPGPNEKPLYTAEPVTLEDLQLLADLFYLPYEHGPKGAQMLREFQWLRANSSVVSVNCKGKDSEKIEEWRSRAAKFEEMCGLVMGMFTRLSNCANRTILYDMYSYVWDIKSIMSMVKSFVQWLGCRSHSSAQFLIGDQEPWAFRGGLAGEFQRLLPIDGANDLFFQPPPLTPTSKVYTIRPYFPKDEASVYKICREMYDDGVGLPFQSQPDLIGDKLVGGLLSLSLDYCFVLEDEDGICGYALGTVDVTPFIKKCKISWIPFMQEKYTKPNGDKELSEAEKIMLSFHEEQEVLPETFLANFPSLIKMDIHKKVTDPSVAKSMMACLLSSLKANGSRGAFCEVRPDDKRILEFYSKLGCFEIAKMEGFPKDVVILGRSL
Procedure, shortened: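 Full-length recombinant OGA (2 nM) pre-incubated with compound 60 min at room temperature, then FM-GlcNAc (100 µM final) added in citrate/phosphate buffer pH 7.2 with 0.005% Tween-20. After 6 h at room temperature, stopped with carbonate pH 11.0; fluorescein read at 485/538 nm; IC50 and Hill coefficient from curve fit.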

[2] = target: T2, OGA (Homo sapiens, UniProt O60502); assay: OGA cellular assay (ICC detection of O-GlcNAcylated proteins in HEK293 cells inducible for P301L mutant human Tau); assay type: cell-based; settings: for Emax: HEK293, HEK293 cells inducible for P301L mutant human Tau; for EC50: read-out: Cellular hOGA, pEC50 (converted)
T2 construct: endogenous in cells; host or cells: HEK293 cells inducible for P301L mutant human Tau (2N4R)
T2 sequence (O60502 1-916): T1 sequence (O60502 1-916)
Procedure, shortened: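 HEK293 cells inducible for P301L Tau, in low-glucose assay medium, treated 6 h with compound at 0.2% DMSO. O-GlcNAcylated proteins detected by CTD110.6 immunostaining, imaged at 488 nm with Hoechst nuclear counts for toxicity. IC50 from non-linear regression, 200 uM Thiamet G as maximum.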

[3] = maximal effect, Thiamet G 200 uM as maximum
[4] = HEK293 cells inducible for P301L mutant human Tau, 6 hours incubation

| SMILES | Emax ([1]; maximal effect) [%] | IC50 [1] [nM] | Emax [2, 3] [%] | EC50 [2, 4] [nM] | Enzymatic hOGA; pIC50 [1] | Enzymatic Emax (%) ([1]; maximal effect) | Cellular hOGA; pEC50 [2, 4] | Cellular Emax (%) ([2]; HEK293 cells inducible for P301L mutant human Tau, maximal effect, Thiamet G 200 uM as maximum) |
| --- | --- | --- | --- | --- | --- | --- | --- | --- |
| Cc1cc(NCC2CCCN(C(C)c3ccc4c(c3)OCC4)C2)cc(C)n1 (stereo not drawn) [Product 22] | 104 | 7.94 | 82 | 7.94 | – | – | – | – |
| COc1cc(NCC2CCCN(C(C)c3ccc4c(n3)OCCO4)C2)cc(C)n1 (stereo not drawn) [Product 23] | 100 | 10 | 81 | 7.94 | – | – | – | – |
| COc1cc(NCC2CCCN(C(C)c3ccc4c(c3)OCC4)C2)cc(C)n1 (stereo not drawn) [Product 30] | 104 | 7.94 | 81 | 6.31 | – | – | – | – |
| Cc1cc(NCC2CCCN(C(C)c3ccc4c(c3)OCC4)C2)cc(C(F)(F)F)n1 (stereo not drawn) [Product 36] | 101 | – | 88 | 126 | – | – | – | – |
| Cc1cc(C[C@H]2CCCN(Cc3ccc4c(n3)OCCO4)C2)cc(C)n1 [Product 43] | 101 | 63.1 | 60 | 501 | – | – | – | – |
| Cc1cc(C[C@H]2CCCN(Cc3ccc4c(c3)OCCN4C)C2)cc(C)n1 [Product 48] | 93 | 501 | 5 | > 1000 | – | – | – | – |
| COc1cc(C[C@H]2CCCN([C@H](C)c3ccc4c(n3)OCCO4)C2)cc(C)n1 [Product 64] | 101 | 3.98 | 97 | 15.8 | – | – | – | – |
| Cc1cc(NCC2CCCN(C(C)c3cc4c(cc3F)OCCO4)C2)cc(C(F)(F)F)n1 (stereo not drawn) [Product 99] | 105 | 5.25 | 65 | 25.1 | – | – | – | – |
| Cc1cc(C[C@H]2CCCN(C(C)c3cnc4c(c3)OCCO4)C2)cc(C)n1 (stereo partly drawn) [Product 130] | 101 | 7.94 | 83 | 158 | – | – | – | – |
| Cc1cnc(OC2CCCN(C(C)c3ccc4c(n3)OCCO4)C2)c(C)n1 (stereo not drawn) [Product 133] | 103 | 15.8 | 62 | 501 | – | – | – | – |
| Cc1cc(OC2CCCN(C(C)c3ccc4c(n3)OCCO4)C2)cc(C)n1 (stereo not drawn) [Product 136] | 101 | 3.98 | 60 | 631 | – | – | – | – |
| Cc1cc(C2CCCN(C(C)c3cnc4c(c3)OCCN4)C2)cc(C)n1 (stereo not drawn) [Product 137] | 101 | 20 | 83 | 50.1 | – | – | – | – |
| Cc1cc(OC2CCCN(C(C)c3ccc4c(n3)OCCO4)C2)cc(C(F)(F)F)n1 (stereo not drawn) [Product 138] | 101 | 126 | 16 | > 1000 | – | – | – | – |
| Cc1cc(OC[C@@H]2CCCN(C(C)c3cnc4c(c3)OCCN4)C2)cc(C)n1 (stereo partly drawn) [Product 145] | 99 | 251 | 35 | > 1000 | – | – | – | – |
| Cc1cc(OC[C@H]2CCCN(C(C)c3cnc4c(c3)OCCN4)C2)cc(C)n1 (stereo partly drawn) [Product 146] | 99 | 6.31 | 79 | 10 | – | – | – | – |
| Cc1cc(OC[C@H]2CCCN(C(C)c3cnc4c(c3)OCCN4)C2)cc(C)n1 (stereo partly drawn) [Product 147] | – | – | – | – | 8.2 | 100 | 8.0 | 80 |
| Cc1cc(C2CCCN(C(C)c3nc4c(cc3F)CCO4)C2)cc(C)n1 (stereo not drawn) [Product 148] | 98 | 15.8 | 78 | 10 | – | – | – | – |
| Cc1cc(C2CCCN(C(C)c3nc4c(cc3F)OCCO4)C2)cc(C)n1 (stereo not drawn) [Product 151] | 102 | 6.31 | 85 | 6.92 | – | – | – | – |
| Cc1cc(OC[C@H]2CCCN(C(C)c3nc4c(cc3F)OCCO4)C2)cc(C)n1 (stereo partly drawn) [Product 152] | 102 | 3.98 | 94 | 3.98 | – | – | – | – |
| Cc1cc(OC[C@H]2CCCN([C@@H](C)c3nc4c(cc3F)OCCO4)C2)cc(C)n1 [Product 153] | 102 | 1.58 | 94 | 2.51 | – | – | – | – |

| SMILES | Emax ([1]; maximal effect) [%] | IC50 [1] [nM] | Emax [2, 3] [%] | EC50 [2, 4] [nM] | Enzymatic hOGA; pIC50 [1] | Enzymatic Emax (%) ([1]; maximal effect) | Cellular hOGA; pEC50 [2, 4] | Cellular Emax (%) ([2]; HEK293 cells inducible for P301L mutant human Tau, maximal effect, Thiamet G 200 uM as maximum) |
| --- | --- | --- | --- | --- | --- | --- | --- | --- |
| Cc1cc(OC[C@H]2CCCN([C@H](C)c3nc4c(cc3F)OCCO4)C2)cc(C)n1 [Product 154] | 101 | 50.1 | 86 | 126 | – | – | – | – |
| Cc1cc(NC[C@H]2CCCN(C(C)c3ccc4c(n3)OCCO4)C2)nc(C)n1 (stereo partly drawn) [Product 157] | 101 | 5.01 | 83 | 15.8 | – | – | – | – |
| Cc1cc(CO[C@H]2CCCN(C(C)c3nc4c(cc3F)OCCO4)C2)cc(C)n1 (stereo partly drawn) [Product 168] | 99 | 3.16 | 69 | 31.6 | – | – | – | – |
| COC1CCN(C(C)c2ccc3c(n2)OCCO3)CC1Cc1cc(C)nc(C)c1 (stereo not drawn) [Product 172] | 99 | 39.8 | 78 | 126 | – | – | – | – |
| Cc1cc(CC2CN(C(C)c3ccc4c(n3)OCCO4)CCC2O)cc(C)n1 (stereo not drawn) [Product 173] | 99 | 63.1 | 64 | 631 | – | – | – | – |
| Cc1cc(NC[C@H]2CCCN(C(C)c3nc4c(cc3F)OCCO4)C2)cc(C)n1 (stereo partly drawn) [Product 181] | 101 | 3.98 | 92 | 1.58 | – | – | – | – |
| COc1cc(NC[C@H]2CCCN(C(C)c3nc4c(cc3F)OCCO4)C2)cc(C)n1 (stereo partly drawn) [Product 182] | 99 | 3.98 | 106 | 1.58 | – | – | – | – |
| Cc1cc(C2CCCN(C(C)c3ccc4c(n3)OCCO4)C2)c(F)c(C)n1 (stereo not drawn) [Product 185] | 100 | 15.8 | 65 | 50.1 | – | – | – | – |
| Cc1cc(C2CCCN(C(C)c3nc4c(cc3F)OCCO4)C2)cc(C(F)F)n1 (stereo not drawn) [Product 187] | 96 | 7.94 | 92 | 12.6 | – | – | – | – |
| Cc1cc(C2CCCN(C(C)c3ccc4c(n3)OCCO4)C2)cc(C(F)F)n1 (stereo not drawn) [Product 188] | 102 | 10 | 79 | 100 | – | – | – | – |
| Cc1cc(C2CCCN(C(C)c3nc4c(cc3F)OCCO4)C2)c(F)c(C)n1 (stereo not drawn) [Product 189] | 100 | 7.94 | 88 | 15.8 | – | – | – | – |
| Cc1cc(C2CCCN(C(C)c3cc4c(cc3F)NCCO4)C2)cc(C)n1 (stereo not drawn) [Product 190] | 101 | 10 | 82 | 50.1 | – | – | – | – |
| Cc1cc(OC[C@H]2CCCN(C(C)c3cc4c(cc3F)NCCO4)C2)cc(C)n1 (stereo partly drawn) [Product 191] | 95 | 5.01 | 81 | 15.8 | – | – | – | – |
| COc1cc(N[C@H]2CCCN(C(C)c3ccc4c(n3)OCCO4)C2)cc(C)n1 (stereo partly drawn) [Product 192] | 99 | 6.31 | 91 | 20 | – | – | – | – |
| Cc1cc(CN[C@H]2CCCN(C(C)c3nc4c(cc3F)OCCO4)C2)cc(C)n1 (stereo partly drawn) [Product 193] | 99 | 3.16 | 95 | 31.6 | – | – | – | – |
| Cc1cc(CN[C@H]2CCCN(C(C)c3ccc4c(n3)OCCO4)C2)cc(C)n1 (stereo partly drawn) [Product 194] | 97 | 20 | 71 | 251 | – | – | – | – |
| CC(c1nc2c(cc1F)OCCO2)N1CCC[C@@H](CNc2ccc(F)cc2)C1 (stereo partly drawn) [Product 195] | 100 | 15.8 | 112 | 79.4 | – | – | – | – |
| CC(c1nc2c(cc1F)OCCO2)N1CCC[C@H](NCc2ccc(F)cc2)C1 (stereo partly drawn) [Product 196] | 95 | 39.8 | 70 | 251 | – | – | – | – |
| CC(c1ccc2c(n1)OCCO2)N1CCC[C@H](NCc2ccc(F)cc2)C1 (stereo partly drawn) [Product 197] | 98 | 398 | 66 | 631 | – | – | – | – |
| COc1cc(CN[C@H]2CCCN(C(C)c3ccc4c(n3)OCCO4)C2)cc(C)n1 (stereo partly drawn) [Product 198] | 94 | 39.8 | 82 | 398 | – | – | – | – |
